Laboratory results published in ChEMBL document CHEMBL5390199, “Discovery of novel N-aryl-2-trifluoromethyl-quinazoline-4-amine derivatives as the inhibitors of tubulin polymerization in leukemia cells” (Eur J Med Chem, 2023).
pIC50: −log10 of the molar value. Active and inactive are the calls of the source. The calls are words filed in the database; no cut-off is given here.

Experiments:
HeLa = assay: Cytotoxicity against human HeLa cells assessed as inhibition of cell growth incubated for 48 hrs by MTT assay; format: functional, cell-based; details: for pIC50: Homo sapiens, HeLa, 48 h, read-out: IC50
K562 [1] = assay: Cytotoxicity against human K562 cells assessed as inhibition of cell growth incubated for 48 hrs by MTT assay; format: functional, cell-based; details: K562, 48 h
HEL [2] = assay: Cytotoxicity against human HEL cells assessed as inhibition of cell growth incubated for 48 hrs by MTT assay; format: functional, cell-based
LNCaP = assay: Cytotoxicity against human LNCaP cells assessed as inhibition of cell growth incubated for 48 hrs by MTT assay; format: functional, cell-based
Tubulin (Homo sapiens) [3] = target: T1, Tubulin (Homo sapiens) (UniProt P68371+Q9H4B7+P0DPH7+P68366+Q13509+Q71U36+P04350+Q3ZCM7+P07437+P68363+Q9BQE3+Q6PEY2+Q13885+Q9BVA1+Q9BUF5); assay: Induction of microtubule depolymerization in human K562 cells assessed as aggregation of microtubule fibers at 100 nM incubated for 24 hrs by confocal microscopic analysis; format: cell-based
K562 [4] = assay: Induction of morphological changes in human K562 cells by fluorescence microscopic analysis; format: functional, cell-based
HEL [5] = assay: Induction of morphological changes in human HEL cells by fluorescence microscopic analysis; format: functional, cell-based
K562 [6] = assay: Induction of apoptosis in human K562 cells at 0.5 uM incubated for 48 hrs by annexin V-FITC/propidium iodide staining based flow cytometry relative to control; format: functional
HEL [7] = assay: Induction of apoptosis in human HEL cells at 0.5 uM incubated for 48 hrs by annexin V-FITC/propidium iodide staining based flow cytometry relative to control; format: functional
K562 [8] = assay: Induction of cell cycle arrest in human K562 cells assessed as reduction in accumulation of cells at G0/G1 phase incubated for 12 hrs by flow cytometry; format: functional, cell-based
K562 [9] = assay: Induction of cell cycle arrest in human K562 cells assessed as reduction in accumulation of cells at S phase incubated for 12 hrs by flow cytometry; format: functional, cell-based
K562 [10] = assay: Induction of cell cycle arrest in human K562 cells assessed as increase in accumulation of cells at G2/M phase incubated for 12 hrs by flow cytometry; format: functional, cell-based
HEL [11] = assay: Induction of cell cycle arrest in human HEL cells assessed as reduction in accumulation of cells at G0/G1 phase incubated for 12 hrs by flow cytometry; format: functional, cell-based
HEL [12] = assay: Induction of cell cycle arrest in human HEL cells assessed as reduction in accumulation of cells at S phase incubated for 12 hrs by flow cytometry; format: functional, cell-based
HEL [13] = assay: Induction of cell cycle arrest in human HEL cells assessed as increase in accumulation of cells at G2/M phase incubated for 12 hrs by flow cytometry; format: functional, cell-based
[14] = Cytotoxicity against human L02 cells assessed as inhibition of cell growth incubated for 48 hrs by MTT assay; format: toxicity, cell-based
[15] = Selectivity index, ratio of IC50 for cytotoxicity against human L02 cells to IC50 for cytotoxicity against human K562 cells; format: toxicity, cell-based; details: L02 cells and K562 cells, read-out: Ratio IC50
[16] = Selectivity index, ratio of IC50 for cytotoxicity against human L02 cells to IC50 for cytotoxicity against human HEL cells
HUVEC = assay: Antiangiogenic activity against human HUVEC cells assessed as inhibition of cell migration at 0.5 uM measured after 24 hrs by scratch wound healing assay; format: functional, cell-based
[17] = target: Tubulin beta (Homo sapiens) (UniProt P68371+Q9H4B7+Q13509+P04350+Q3ZCM7+P07437+Q13885+Q9BVA1+Q9BUF5+A6NNZ2); assay: Binding affinity to beta-tubulin colchicine binding site in human K562 cells assessed as inhibition of EBI-beta-tubulin adduct band formation preincubated for 2 hrs followed by EBI addition and measured after 1.5 hrs by EBI competition based Western blot analysis; format: cell-based; details: dose 0.2-25 µM, time 3.5 hrs
Tubulin (Homo sapiens) [18] = target: T1, Tubulin (Homo sapiens); assay: Induction of microtubule depolymerization in human K562 cells at 500 nM incubated for 24 hrs by confocal microscopic analysis; format: cell-based
Tubulin (Homo sapiens) [19] = target: T1, Tubulin (Homo sapiens); assay: Inhibition of microtubule polymerization in human K562 cells at 0.5 uM measured for 60 mins; format: cell-based

SMILES	pIC50 (HeLa)	pIC50 (K562 [1])	pIC50 (HEL [2])	pIC50 (LNCaP)	Activity (K562 [4])	Activity (HEL [5])	Activity (HUVEC)	other results
CNc1cc(N(C)c2nc(C(F)(F)F)nc3ccc(F)cc23)ccc1OC	7.06	5.65	6.56	6.18				
CC(=O)O[C@H]1C(=O)[C@@]2(C)[C@H]([C@H](OC(=O)c3ccccc3)[C@]3(O)C[C@H](OC(=O)[C@H](O)[C@@H](NC(=O)c4ccccc4)c4ccccc4)C(C)=C1C3(C)C)[C@]1(OC(C)=O)CO[C@@H]1C[C@@H]2O [PACLITAXEL]	8.22	6.06	6.70	7.24				Activity (Tubulin (Homo sapiens) [3]): Active
COc1ccc(N(C)c2nc(C(F)(F)F)nc3ccc(Cl)cc23)cc1	6.48	6.53	6.53	6.84	Active	Active	Active	Activity (K562 [6]): 19.7%; Activity (HEL [7]): 31%; Activity (K562 [8]): Active; Activity (K562 [9]): Active; Activity (K562 [10]): Active; Activity (HEL [11]): Active; Activity (HEL [12]): Active; Activity (HEL [13]): Active; IC50 at 48 h [14]: 323 nM; selectivity ratio [15]: 1.1; Ratio IC50 [16]: 8.28
COc1ccc(N(C)c2nc(C(F)(F)F)nc3cc(OC)c(O)cc23)cc1		5.60	5.35	5.79				IC50 (HeLa; hela): Not Active
CCNc1cc(N(C)c2nc(C(F)(F)F)nc3ccc(F)cc23)ccc1OC	6.70	5.62	5.16	5.59				
COc1ccc(N(C)c2nc(C(F)(F)F)nc3ccc(Cl)cc23)cc1[N+](=O)[O-]	6.00	6.75	6.40	6.23	Active	Active	Active	Activity (K562 [6]): 12.7%; Activity (K562 [8]): Active; Activity (K562 [9]): Active; Activity (K562 [10]): Active; IC50 at 48 h [14]: 570 nM; selectivity ratio [15]: 3.22
COc1ccc(N(C)c2nc(C(F)(F)F)nc3ccc(F)cc23)cc1NC(C)=O	7.34	5.80	5.95	6.09				
COc1ccc(N(C)c2nc(C(F)(F)F)nc3cc(OC)c(OCCCN4CCCC4)cc23)cc1	6.35	5.62	5.81	6.76				
CN(c1ccc2c(ccn2C)c1)c1nc(C(F)(F)F)nc2ccc(F)cc12	7.66	6.35	6.44	7.02	Active	Active	Active	Activity (K562 [6]): 20.3%; Activity (K562 [8]): Active; Activity (K562 [9]): Active; Activity (K562 [10]): Active; IC50 at 48 h [14]: 2830 nM; selectivity ratio [15]: 6.29
COc1ccc(N(C)c2nc(C(F)(F)F)nc3ccc(Cl)cc23)c([N+](=O)[O-])c1	6.21	5.65	5.88	5.59				
Cc1ccc2nc(C(F)(F)F)nc(N(C)c3ccc4c(ccn4C)c3)c2c1	5.88	5.92	6.00	6.02				
C=CC(=O)Nc1cc(N(C)c2nc(C(F)(F)F)nc3ccc(F)cc23)ccc1OC	6.78	6.01	6.37	6.40				
COc1ccc(N(C)c2nc(C(F)(F)F)nc3ccc(F)cc23)cc1	6.96	6.58	7.00	6.42	Active	Active	Active	Activity (K562 [6]): 19.9%; Activity (HEL [7]): 32.3%; Activity (K562 [8]): Active; Activity (K562 [9]): Active; Activity (K562 [10]): Active; Activity (HEL [11]): Active; Activity (HEL [12]): Active; Activity (HEL [13]): Active; IC50 at 48 h [14]: 1950 nM; selectivity ratio [15]: 7.36; Ratio IC50 [16]: 19.7; Activity [17]: Dose-Dependent Effect; Activity (Tubulin (Homo sapiens) [18]): Active; Activity (Tubulin (Homo sapiens) [19]): Active
COc1cc2c(c(OC)c1OC)-c1ccc(OC)c(=O)cc1[C@@H](NC(C)=O)CC2 [COLCHICINE]	7.82	6.01	6.81	6.61				
Cc1ccc2nc(C(F)(F)F)nc(N(C)c3ccc(C(F)(F)F)cc3)c2c1	5.54	5.71	5.85	5.58				
COc1cc2nc(C(F)(F)F)nc(N(C)c3ccc4c(ccn4C)c3)c2cc1O	5.95	5.65	6.33	6.32				
COc1ccc(N(C)c2nc(C(F)(F)F)nc3ccc(F)cc23)cc1NC(=O)CCl	7.43	5.86	6.23	6.59				
CN(c1ccc2c(ccn2C)c1)c1nc(C(F)(F)F)nc2ccc(Cl)cc12	6.47	6.16	7.05	6.86	Active	Active	Active	Activity (HEL [7]): 28.5%; Activity (HEL [11]): Active; Activity (HEL [12]): Active; Activity (HEL [13]): Active; Ratio IC50 [16]: 3.45
CCN(CC)c1cc(N(C)c2nc(C(F)(F)F)nc3ccc(F)cc23)ccc1OC	5.08	4.67	4.93	4.88				
COc1ccc(N(C)c2nc(C(F)(F)F)nc3ccc(C)cc23)cc1	6.85	5.48	7.47	6.63	Active	Active	Active	Activity (HEL [7]): 29.2%; Activity (HEL [11]): Active; Activity (HEL [12]): Active; Activity (HEL [13]): Active; Ratio IC50 [16]: 3.38
